According to PMC8213057, “Targeting ALK2: An Open Science Approach to Developing Therapeutics for the Treatment of Diffuse Intrinsic Pontine Glioma” (Journal of Medicinal Chemistry, 2020):
“And” between values parts separate entries of the source, which are not always exact repeats. Equal values may be shown once.

What was measured:
[1] = test system: ALK4/ACVR1B
[2] = target: CDK17/cyclin Y (PCTK2) (Homo sapiens, UniProt Q00537); conditions: 1 μM; Run 1, Run 2
[3] = target: T1, CHK1 (Homo sapiens, UniProt O14757); conditions: 1 μM; Run 1, Run 2
T1 sequence (O14757 1-476): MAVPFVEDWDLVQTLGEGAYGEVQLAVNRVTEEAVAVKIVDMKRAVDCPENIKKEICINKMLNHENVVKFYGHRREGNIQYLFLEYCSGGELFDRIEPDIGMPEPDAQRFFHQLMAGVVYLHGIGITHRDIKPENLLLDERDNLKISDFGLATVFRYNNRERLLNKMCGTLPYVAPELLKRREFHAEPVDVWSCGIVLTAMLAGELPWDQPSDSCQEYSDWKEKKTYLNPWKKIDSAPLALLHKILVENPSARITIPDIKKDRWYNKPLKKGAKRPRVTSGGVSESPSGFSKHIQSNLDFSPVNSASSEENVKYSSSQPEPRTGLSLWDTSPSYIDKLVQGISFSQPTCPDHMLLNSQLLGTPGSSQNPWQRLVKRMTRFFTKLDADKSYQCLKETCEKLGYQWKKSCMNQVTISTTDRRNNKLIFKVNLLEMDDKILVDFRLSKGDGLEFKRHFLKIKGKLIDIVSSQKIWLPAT

[4] = target: CK1g2 (Homo sapiens, UniProt P78368); conditions: 1 μM; Run 1, Run 2
[5] = target: DMPK2 (Homo sapiens, UniProt Q6DT37); conditions: 1 μM; Run 1, Run 2
[6] = target: FER (Homo sapiens, UniProt P16591); conditions: 1 μM; Run 1, Run 2
[7] = target: T2, NEK3 (Homo sapiens, UniProt P51956); conditions: 1 μM; Run 1, Run 2
T2 sequence (P51956 1-506): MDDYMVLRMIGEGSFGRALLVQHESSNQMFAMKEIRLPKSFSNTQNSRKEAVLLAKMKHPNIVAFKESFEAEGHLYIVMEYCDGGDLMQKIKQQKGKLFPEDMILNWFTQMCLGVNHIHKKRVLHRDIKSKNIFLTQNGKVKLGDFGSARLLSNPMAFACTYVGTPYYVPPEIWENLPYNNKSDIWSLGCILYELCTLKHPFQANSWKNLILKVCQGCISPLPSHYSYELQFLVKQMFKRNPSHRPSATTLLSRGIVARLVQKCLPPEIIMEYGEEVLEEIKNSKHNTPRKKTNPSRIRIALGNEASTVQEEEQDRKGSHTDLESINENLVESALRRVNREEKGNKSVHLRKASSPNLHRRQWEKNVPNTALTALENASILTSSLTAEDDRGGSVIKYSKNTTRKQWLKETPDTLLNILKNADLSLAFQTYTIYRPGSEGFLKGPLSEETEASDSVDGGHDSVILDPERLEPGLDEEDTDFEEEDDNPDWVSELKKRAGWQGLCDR

[8] = target: PKN3/PRK3 (Homo sapiens, UniProt Q6P5Z2); conditions: 1 μM; Run 1, Run 2
[9] = target: CDK2/cyclin E2 (Homo sapiens, UniProt P24941); experiment: biochemical; conditions: read-out: % enzyme activity, 1 μM; Run 1, Run 2
[10] = target: CDK4/cyclin D1 (Homo sapiens, UniProt P11802); experiment: biochemical; conditions: read-out: % enzyme activity, 1 μM; Run 1, Run 2
[11] = target: CLK4 (Homo sapiens, UniProt Q9HAZ1); experiment: biochemical; conditions: read-out: % enzyme activity, 1 μM; Run 1, Run 2
[12] = target: P38a/MAPK14 (Homo sapiens, UniProt Q16539); experiment: biochemical; conditions: read-out: % enzyme activity, 1 μM; Run 1, Run 2
[13] = target: T3, PLK4/SAK (Homo sapiens, UniProt O00444); experiment: biochemical; conditions: read-out: % enzyme activity, 1 μM; Run 1, Run 2
T3 sequence (O00444 1-970): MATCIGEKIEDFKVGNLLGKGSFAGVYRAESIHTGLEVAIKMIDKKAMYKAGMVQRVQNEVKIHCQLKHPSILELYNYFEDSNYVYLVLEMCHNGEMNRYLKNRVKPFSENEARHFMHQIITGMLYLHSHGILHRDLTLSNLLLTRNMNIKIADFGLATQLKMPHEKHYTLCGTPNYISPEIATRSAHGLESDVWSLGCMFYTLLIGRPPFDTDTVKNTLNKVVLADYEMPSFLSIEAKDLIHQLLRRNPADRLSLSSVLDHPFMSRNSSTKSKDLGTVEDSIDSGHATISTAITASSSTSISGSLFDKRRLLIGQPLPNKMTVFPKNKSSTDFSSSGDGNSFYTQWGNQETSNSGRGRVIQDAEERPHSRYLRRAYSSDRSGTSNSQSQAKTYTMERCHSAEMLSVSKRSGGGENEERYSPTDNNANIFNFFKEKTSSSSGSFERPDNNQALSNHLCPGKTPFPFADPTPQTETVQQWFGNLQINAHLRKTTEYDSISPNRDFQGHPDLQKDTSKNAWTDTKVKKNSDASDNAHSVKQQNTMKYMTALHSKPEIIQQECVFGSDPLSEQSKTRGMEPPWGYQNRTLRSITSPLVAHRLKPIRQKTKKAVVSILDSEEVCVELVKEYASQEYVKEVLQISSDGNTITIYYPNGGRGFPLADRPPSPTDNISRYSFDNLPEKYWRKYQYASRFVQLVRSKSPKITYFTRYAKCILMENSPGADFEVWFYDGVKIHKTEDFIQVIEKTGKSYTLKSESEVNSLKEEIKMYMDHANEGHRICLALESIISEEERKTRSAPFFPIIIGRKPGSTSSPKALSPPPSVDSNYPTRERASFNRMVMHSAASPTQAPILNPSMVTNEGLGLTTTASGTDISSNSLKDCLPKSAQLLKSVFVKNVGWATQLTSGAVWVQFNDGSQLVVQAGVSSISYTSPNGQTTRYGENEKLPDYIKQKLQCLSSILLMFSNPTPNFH

Chain of CK1g2 (P78368 whole entry): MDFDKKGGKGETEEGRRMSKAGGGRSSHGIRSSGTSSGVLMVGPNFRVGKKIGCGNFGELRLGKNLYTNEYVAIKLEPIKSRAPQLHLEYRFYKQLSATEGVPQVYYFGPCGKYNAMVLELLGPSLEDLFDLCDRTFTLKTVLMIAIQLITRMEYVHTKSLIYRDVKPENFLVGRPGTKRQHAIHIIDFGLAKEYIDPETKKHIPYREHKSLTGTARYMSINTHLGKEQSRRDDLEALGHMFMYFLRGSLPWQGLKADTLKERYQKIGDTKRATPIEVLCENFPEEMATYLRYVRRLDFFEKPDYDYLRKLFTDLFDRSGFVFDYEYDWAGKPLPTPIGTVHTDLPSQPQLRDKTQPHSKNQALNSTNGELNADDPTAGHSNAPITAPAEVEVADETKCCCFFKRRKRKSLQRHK
Chain of DMPK2 (Q6DT37 whole entry): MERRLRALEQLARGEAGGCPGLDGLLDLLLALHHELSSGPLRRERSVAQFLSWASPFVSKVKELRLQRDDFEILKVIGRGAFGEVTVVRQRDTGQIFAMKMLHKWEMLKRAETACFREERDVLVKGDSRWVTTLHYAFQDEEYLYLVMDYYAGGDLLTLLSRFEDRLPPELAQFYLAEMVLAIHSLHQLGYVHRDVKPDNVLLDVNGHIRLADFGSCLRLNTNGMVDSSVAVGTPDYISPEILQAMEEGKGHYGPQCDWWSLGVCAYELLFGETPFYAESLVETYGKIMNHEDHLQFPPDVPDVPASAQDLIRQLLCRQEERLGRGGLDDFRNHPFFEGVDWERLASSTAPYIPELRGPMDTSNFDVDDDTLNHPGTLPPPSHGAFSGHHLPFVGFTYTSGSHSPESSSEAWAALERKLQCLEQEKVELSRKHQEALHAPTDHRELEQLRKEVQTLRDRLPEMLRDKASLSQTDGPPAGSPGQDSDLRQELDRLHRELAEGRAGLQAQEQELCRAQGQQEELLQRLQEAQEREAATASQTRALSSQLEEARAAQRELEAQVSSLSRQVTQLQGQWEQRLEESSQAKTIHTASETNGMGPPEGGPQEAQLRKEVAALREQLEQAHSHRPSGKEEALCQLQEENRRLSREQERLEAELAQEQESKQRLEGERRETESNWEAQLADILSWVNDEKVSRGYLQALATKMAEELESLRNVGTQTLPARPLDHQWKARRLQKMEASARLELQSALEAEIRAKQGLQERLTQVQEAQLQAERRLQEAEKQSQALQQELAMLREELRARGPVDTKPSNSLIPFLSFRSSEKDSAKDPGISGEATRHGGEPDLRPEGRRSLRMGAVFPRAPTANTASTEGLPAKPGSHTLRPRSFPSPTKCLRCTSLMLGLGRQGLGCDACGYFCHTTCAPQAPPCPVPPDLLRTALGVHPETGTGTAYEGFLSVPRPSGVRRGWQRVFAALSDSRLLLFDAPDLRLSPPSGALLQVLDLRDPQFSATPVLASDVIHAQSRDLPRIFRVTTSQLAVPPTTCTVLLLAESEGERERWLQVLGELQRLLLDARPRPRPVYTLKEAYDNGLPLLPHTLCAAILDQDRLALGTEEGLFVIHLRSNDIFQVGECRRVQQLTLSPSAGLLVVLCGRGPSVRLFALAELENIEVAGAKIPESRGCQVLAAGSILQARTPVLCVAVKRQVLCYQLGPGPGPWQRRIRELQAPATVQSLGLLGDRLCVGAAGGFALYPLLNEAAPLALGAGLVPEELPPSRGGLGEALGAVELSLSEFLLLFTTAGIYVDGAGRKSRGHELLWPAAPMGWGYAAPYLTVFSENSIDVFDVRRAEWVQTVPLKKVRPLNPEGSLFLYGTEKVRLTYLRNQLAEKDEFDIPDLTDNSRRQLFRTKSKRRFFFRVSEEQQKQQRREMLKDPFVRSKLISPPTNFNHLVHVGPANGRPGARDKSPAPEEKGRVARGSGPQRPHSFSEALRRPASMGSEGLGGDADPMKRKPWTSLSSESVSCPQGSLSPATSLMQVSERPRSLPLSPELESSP
Chain of FER (P16591 whole entry): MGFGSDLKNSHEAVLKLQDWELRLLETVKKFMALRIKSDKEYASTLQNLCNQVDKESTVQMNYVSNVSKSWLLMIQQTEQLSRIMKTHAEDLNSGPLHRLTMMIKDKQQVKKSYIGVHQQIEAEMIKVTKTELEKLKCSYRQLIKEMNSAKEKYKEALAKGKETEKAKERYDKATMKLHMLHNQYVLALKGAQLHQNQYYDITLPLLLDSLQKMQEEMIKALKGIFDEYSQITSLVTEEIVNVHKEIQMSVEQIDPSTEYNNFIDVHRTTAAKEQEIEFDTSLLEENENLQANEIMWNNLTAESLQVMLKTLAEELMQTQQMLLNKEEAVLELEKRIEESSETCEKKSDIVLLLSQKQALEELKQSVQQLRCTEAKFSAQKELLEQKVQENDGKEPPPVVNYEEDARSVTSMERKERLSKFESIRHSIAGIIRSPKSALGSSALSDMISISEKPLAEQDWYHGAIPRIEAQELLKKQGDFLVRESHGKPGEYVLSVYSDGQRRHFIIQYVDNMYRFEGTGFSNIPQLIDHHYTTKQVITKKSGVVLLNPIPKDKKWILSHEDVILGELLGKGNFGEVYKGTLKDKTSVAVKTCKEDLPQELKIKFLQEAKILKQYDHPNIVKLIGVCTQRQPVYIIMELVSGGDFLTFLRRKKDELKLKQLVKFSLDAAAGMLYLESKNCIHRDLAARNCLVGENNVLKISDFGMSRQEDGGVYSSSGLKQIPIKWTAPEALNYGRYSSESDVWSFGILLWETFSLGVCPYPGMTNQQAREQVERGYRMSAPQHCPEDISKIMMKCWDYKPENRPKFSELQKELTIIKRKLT
Chain of CDK17/cyclin Y (PCTK2) (Q00537 whole entry): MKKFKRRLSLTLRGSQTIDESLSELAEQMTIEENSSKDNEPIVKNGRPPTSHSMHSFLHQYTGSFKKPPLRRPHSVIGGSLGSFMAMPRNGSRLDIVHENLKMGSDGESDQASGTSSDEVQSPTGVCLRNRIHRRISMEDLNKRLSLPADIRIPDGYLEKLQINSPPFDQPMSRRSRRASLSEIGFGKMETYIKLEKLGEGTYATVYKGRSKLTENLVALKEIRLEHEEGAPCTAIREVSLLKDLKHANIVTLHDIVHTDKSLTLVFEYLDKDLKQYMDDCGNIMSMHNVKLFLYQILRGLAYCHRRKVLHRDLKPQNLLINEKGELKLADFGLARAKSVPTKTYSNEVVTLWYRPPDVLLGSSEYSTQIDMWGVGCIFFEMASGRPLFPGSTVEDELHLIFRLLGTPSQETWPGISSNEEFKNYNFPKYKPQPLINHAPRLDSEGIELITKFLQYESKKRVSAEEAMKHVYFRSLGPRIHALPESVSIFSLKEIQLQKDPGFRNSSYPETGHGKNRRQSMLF
Chain of CDK17/cyclin Y (PCTK2) (Q8ND76 whole entry partner): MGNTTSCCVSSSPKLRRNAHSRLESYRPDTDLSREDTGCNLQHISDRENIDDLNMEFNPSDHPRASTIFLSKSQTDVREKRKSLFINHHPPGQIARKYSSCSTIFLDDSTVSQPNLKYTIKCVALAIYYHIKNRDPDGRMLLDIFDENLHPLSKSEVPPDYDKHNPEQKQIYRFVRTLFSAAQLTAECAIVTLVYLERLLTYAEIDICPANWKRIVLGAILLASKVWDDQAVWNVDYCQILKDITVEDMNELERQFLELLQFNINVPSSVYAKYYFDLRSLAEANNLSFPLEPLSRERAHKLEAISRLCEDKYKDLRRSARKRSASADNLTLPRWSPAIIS
Chain of PKN3/PRK3 (Q6P5Z2 whole entry): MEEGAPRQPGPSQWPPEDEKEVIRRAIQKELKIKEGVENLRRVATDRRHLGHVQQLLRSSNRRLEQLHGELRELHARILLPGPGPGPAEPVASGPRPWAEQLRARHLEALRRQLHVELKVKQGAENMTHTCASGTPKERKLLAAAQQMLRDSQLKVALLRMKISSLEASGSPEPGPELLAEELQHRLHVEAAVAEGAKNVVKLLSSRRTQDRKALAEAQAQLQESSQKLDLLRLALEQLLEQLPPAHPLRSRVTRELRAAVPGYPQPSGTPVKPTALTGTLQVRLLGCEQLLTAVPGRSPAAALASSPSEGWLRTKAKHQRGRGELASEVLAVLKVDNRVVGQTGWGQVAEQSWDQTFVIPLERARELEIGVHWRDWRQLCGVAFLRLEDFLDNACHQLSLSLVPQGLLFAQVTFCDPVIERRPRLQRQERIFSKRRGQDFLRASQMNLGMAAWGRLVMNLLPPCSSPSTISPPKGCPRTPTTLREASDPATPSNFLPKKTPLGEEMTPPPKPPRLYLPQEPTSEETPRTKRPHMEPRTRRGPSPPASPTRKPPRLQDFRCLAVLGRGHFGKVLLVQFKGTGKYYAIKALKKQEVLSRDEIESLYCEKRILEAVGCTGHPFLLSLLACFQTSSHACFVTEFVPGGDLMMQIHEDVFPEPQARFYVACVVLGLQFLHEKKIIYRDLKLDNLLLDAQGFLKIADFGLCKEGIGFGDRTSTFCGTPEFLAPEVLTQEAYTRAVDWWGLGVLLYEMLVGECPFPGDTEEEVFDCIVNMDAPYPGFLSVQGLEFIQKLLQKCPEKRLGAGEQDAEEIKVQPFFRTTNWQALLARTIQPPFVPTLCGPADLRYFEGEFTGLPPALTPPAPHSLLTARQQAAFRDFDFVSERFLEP
Chain of P38a/MAPK14 (Q16539 whole entry): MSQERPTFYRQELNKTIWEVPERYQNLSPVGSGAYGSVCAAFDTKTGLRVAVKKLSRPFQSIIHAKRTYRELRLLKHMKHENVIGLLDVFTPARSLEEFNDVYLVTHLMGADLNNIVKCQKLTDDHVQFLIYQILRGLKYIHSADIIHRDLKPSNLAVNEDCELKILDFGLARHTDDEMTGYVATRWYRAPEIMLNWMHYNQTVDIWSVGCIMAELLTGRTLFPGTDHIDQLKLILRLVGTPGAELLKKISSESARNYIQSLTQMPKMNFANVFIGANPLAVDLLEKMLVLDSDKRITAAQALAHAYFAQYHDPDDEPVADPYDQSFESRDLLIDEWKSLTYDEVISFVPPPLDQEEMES

Structure (SMILES) | % enzyme activity at 1 μM [1] | % enzyme activity [2] | % enzyme activity [3] | % enzyme activity [4] | % enzyme activity [5] | % enzyme activity [6] | % enzyme activity [7] | % enzyme activity [8] | remaining activity at 1 µM [9] | remaining activity at 1 µM [10] | remaining activity at 1 µM [11] | remaining activity at 1 µM [12] | remaining activity at 1 µM [13]
COc1cc(-c2cncc(-c3ccc(N4CCN(C)CC4)cc3)c2C)cc(F)c1C(N)=O [Compound 26a, 2-Fluoro-6-methoxy-4-(4-methyl-5-(4-(4-methylpiperazin-1-yl)phenyl)pyridin-3-yl)benzamide] | 68.8% | 95.45% | 94.26% | 75.72% | 82.52% | 86.16% | 86.84% | 93.55% | 108% | 99.4% | 88.9% | 92.7% | 94.1%
COc1cc(-c2cncc(-c3ccc(N4C[C@@H](C)N(C)[C@@H](C)C4)cc3)c2C)cc(F)c1C(N)=O [Compound 26c, 2-Fluoro-6-methoxy-4-(4-methyl-5-(4-((3R,5S)-3,4,5-trimethylpiperazin-1-yl)phenyl)pyridin-3-yl)benzamide] | 82.4% and 81.7% | 99.91% | 100.95% | 85.61% | 86.97% | 84.91% | 94.54% | 96.44% | 95% | 100% | 92.6% | 97% | 98.8%
